pIC50: −log10 of the molar value.
Molecular target: Poly [ADP-ribose] polymerase 1 (Homo sapiens, UniProt P09874)
Assay: PARP1 Enzyme Activity Assay
Procedure: The histone solution in the kit was diluted 5× with 1×PBS, and 25 μL of the diluted histone solution was added to a microwell plate and incubated overnight at 4° C. After the incubation, the plate was washed three times with PBST (0.05% Tween-20). 100 μL of the blocking solution was added to the microwell plate and incubated at 25° C. for 90 minutes. After the incubation, the plate was washed three times with PBST. 2.5 μL of compounds at different concentrations diluted in test buffer and 12.5 μL of substrate mixed solution (1.25 μL 10×PARP test buffer; 1.25 μL 10×PARP test mixed solution; 2.5 μL Activated DNA, 7.5 μL double-distilled water) were added to the microwell plate. The PARP1 enzyme was diluted to 2 ng/μL, 10 μL of the diluent was added to the microwell plate, and the reaction system was incubated at 25° C. for 60 minutes.After the incubation, the plate was washed three times with PBST. Streptavidin-HRP was diluted 50× with a blocking solution, and 25 μL of the diluent was added to the microwell plate and incubated at 25° C. for 30 minutes. After the incubation, the plate was washed three times with PBST. ELISA ECL substrate A and substrate B were mixed at a ratio of 1:1 (v/v), 50 μL of the mixture was added to the microwell plate, and the chemiluminescence value was read.

Chain of Poly [ADP-ribose] polymerase 1 (P09874 whole entry): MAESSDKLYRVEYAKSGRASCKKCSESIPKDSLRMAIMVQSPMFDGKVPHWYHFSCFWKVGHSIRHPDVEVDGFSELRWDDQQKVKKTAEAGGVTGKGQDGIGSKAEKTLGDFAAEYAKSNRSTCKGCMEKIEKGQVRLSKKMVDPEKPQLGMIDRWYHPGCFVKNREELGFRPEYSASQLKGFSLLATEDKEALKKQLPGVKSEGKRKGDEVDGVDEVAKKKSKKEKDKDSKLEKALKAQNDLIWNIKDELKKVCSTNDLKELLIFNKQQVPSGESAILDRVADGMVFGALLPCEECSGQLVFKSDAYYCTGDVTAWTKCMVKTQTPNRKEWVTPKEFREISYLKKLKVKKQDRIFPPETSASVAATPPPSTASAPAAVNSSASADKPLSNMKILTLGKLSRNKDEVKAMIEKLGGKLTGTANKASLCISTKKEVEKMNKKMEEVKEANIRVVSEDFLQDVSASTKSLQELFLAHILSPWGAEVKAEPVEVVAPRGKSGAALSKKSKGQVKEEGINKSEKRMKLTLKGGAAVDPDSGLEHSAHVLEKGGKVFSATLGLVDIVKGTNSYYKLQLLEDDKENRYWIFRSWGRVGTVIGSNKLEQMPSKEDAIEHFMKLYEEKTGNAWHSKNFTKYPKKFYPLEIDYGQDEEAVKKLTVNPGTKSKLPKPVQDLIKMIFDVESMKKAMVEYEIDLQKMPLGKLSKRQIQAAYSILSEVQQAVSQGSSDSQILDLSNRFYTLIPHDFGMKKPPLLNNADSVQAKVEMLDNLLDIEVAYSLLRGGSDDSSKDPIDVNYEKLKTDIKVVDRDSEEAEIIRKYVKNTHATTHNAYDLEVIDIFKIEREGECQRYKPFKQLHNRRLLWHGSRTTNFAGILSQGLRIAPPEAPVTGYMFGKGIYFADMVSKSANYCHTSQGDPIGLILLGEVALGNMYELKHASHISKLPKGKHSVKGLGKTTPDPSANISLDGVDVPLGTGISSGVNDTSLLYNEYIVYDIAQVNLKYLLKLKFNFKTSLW

| pIC50 | Structure (SMILES) |
| --- | --- |
| 9.27 | CCC1CC2N=CC(CN3CCN(C4C=CC(C(=O)N[C@@H]5C[C@@H]5F)=NC4)CC3)=CC2NC1=O (stereo partly drawn) [US20240400586, Compound 11] |
| 9.25 | CCC1=CC2N=CC(CN3CCN(c4ccc(C(=O)NC5CCC5)nc4)CC3)CC2NC1=O (stereo not drawn) [US20240400586, Compound 10] |
| 9.19 | CCC1Cc2ncc(CN3CCN(C4CN5C=C(C)NC5C=N4)CC3)cc2NC1=O (stereo not drawn) [US20240400586, Compound 15] |

From BindingDB's records for patent US20240400586 (Haisco Pharmaceutical Group, 2024)
